From US20160030443A1, “METHODS AND COMPOSITIONS FOR MODULATING REGULATORY T CELL FUNCTION” (priority 2013, published 2016) come the findings set out here.

This assay deals with human Treg cells. In words: Functional screening assay: naïve CD4+ T cell proliferation ([3H]thymidine) with Treg cells and small molecule compounds. Format: cell-based. Conditions: compound 1 μM; [3H]thymidine incorporation; marked effect = CPM>60K, 50% restoration. As for the experimental part: These small molecule compounds contain a quinolone structure. Those with a marked effect on the proliferation of CD4^+ naïve T cells (CPM>60K, 50% restoration compared to naïve T cells alone) are considered excellent candidates for further drug development. Naïve T cells alone or CD4^+ naïve cells plus Treg cells, without any compound serve as controls. […]
Specifically, a functional screening assay was carried out using soluable anti-CD3 antibody plus antigen-presenting cells (APCs). Naïve CD4^+T cells were purified from PBMCs using microbeads (Miltenvi Biotec). DCs were generated from PBMC-derived monocytes in the presence of IL-4 (500 ng/ml) and GM-CSF (800 ng/ml) for 7 days. 1×10^5 naïve CD4^+ T cells were cultured with regulatory T cells at different ratios of 1:0.2, 1:0.1 and 1:0.05 in 200 μl of medium containing 2×10^4 of DCs and anti-CD3 antibody (100 ng/ml) in the absence or presence of various small molecule compounds (1 μM). □ After 56 hours of culture, [^3H]thymidine was added at a final concentration of 1 μCi/well, followed by an additional 16 h. of culture. The incorporation of [^3H]thymidine was measured with a liquid scintillation counter. All experiments were performed in triplicate. In addition, a screening assay was performed usinge anti-CD3 antibody coated without APCs: 1×10^5 naïve CD4 T cells were cultured with regulatory T cells at different ratios of 1:0.2, 1:0.1 and 1:0.05 in anti-CD3 mAb-coated (2 μg/ml) 96-well plates in the absence or presence of various small molecule compounds (1 μM) □. After 56 h of culture, [^3H]thymidine was added at a final concentration of 1 μCi/well, followed by an additional 16 h of culture. The incorporation of [^3H]thymidine was measured with a liquid scintillation counter.
A general note: Uptake of a labelled nucleoside into DNA is a usual measure of proliferation.
Take `CCCCCn1cc(C(=O)O)c(=O)c2cc(F)c(F)cc21` [#8, 6,7-difluoro-4-oxo-1-pentylquinoline-3-carboxylic acid]: the “Reversal of the suppressive function of Treg cells (restoration of naïve CD4+ T cell proliferation)” value (“Reversal” below) is given as “ST008097 #8 No activity”. Turning to `CCn1cc(C(=O)O)c(=O)c2cc(F)c(NN3C(=O)/C(=C\c4ccccc4)N=C3c3ccccc3)cc21` [#9, F[…] 5- MALEIMIDE], the “Reversal” value was “ST023837 #9 No activity”. In the case of `O=C(O)c1c[nH]c2ccccc2c1=O` [#10, 4-oxo-1H-quinoline-3-carboxylic acid], the “Reversal” value is reported as “ST020639 #10 No activity”. Regarding `CCn1cc(C(=O)O)c(=O)c2cc(F)c(NN3C(=O)CSC3c3ccccc3Cl)cc21` (stereo not shown) [#11, {[2-(2-chlorophenyl)-4-oxo(1,3-thiazolidin-3-yl)]amino}-1-ethyl-6-fluoro-4-o xohydroquinoline-3-carboxylic acid], the “Reversal” value was “ST048777 #11 No activity”. As for `CCn1cc(C(=O)O)c(=O)c2cc(F)c(NN3C(=O)C(Cl)C3c3ccc(OC)cc3)cc21` (stereo not shown) [#12, 7-{[3-Chloro-2-(4-methoxyphenyl)-4-oxo-1-azetidinyl]amino}-1-ethyl-6-fluoro-4-oxo-1,4-dihydro-3-quinolinecarboxylic acid], the entry is “ST026709 #12 No activity”; as for `CCOC(=O)c1cn(-c2ccc(F)cc2F)c2nc(Cl)c(F)cc2c1=O` [#14, ethyl 7-chloro-1-(2,4-difluorophenyl)-6-fluoro-4-oxo-1,8-naphthyridine-3-carboxylate], “ST067113 #14 No activity”. Consider `Fc1ccccc1N1CCNCC1` [#15, 1-(2-Fluorophenyl)piperazine], for which the “Reversal” value is recorded as “TRE0004030 #15 No activity”.

For the molecule `Fc1ccc(N2CCNCC2)c(F)c1` [#16, 1-(2,4-Difluorophenyl)piperazine], the “Reversal” value is “TRE0005495 #16 No activity”. For the molecule `Fc1ccccc1N1CCNCC1` [#17, 1-(2-Fluorophenyl)piperazine], the “Reversal” value is given as “TRE0005772 #17 No activity”.

On to `CCOC(=O)c1c[nH]c2c(F)c(F)c(F)cc2c1=O` [#18, Ethyl 6,7,8-trifluoro-1,4-dihydro-4-oxo-3-quinilinecarboxylate], for which the “Reversal” value is “TRE0006666 #18 No activity”. As to `CCn1cc(C(=O)O)c(=O)c2cc(F)c(Cl)cc21` [#19, 7-Chloro-1-ethyl-6-fluoro-4-oxo-1,4-dihydro-3-quinolinecarboxylic acid], the “Reversal” value is reported as “TRE0007211 #19 No activity”. On to `CC1COc2c(F)c(F)cc3c(=O)c(C(=O)O)cn1c23` (stereo not shown) [#20, 9,10-Difluoro-3-methyl-7-oxo-2,3-dihydro-7H-[1,4]oxazino[2,3,4-ij]quinoline-6-carboxylic acid], for which the “Reversal” value was “TRE0008195 #20 No activity”. Take `CC1CCc2cc(F)cc3c(=O)c(C(=O)O)cn1c23` (stereo not shown) [#21, 9-Fluoro-5-methyl-1-oxo-6,7-dihydro-1H,5H-pyrido[3,2,1-ij]quinoline-2-carboxylic acid, reference compound]: the “Reversal” value is recorded as “TRE0065224 #21 No activity”. Consider `CCN1CCN(c2cc3c(cc2F)c(=O)c(C(=O)O)cn3C2CC2)CC1` [#26, 1-Cyclopropyl-7-(4-ethyl-1-piperazinyl)-6-fluoro-4-oxo-1,4-dihydro-3-quinolinecarboxylic acid, reference compound], for which the “Reversal” value is reported as “TRE0076990 #26 No activity”. The same measure for `CCOC(=O)c1cn(CC)c2c(F)c(F)c(F)cc2c1=O` [#27, Ethyl 1-ethyl-6,7,8-trifluoro-1,4-dihydro-4-oxo-3-quinolinecarboxylate]: “TRE0080754 #27 No activity”; for `O=C(O)c1coc2ccc(F)cc2c1=O` [#28, 6-Fluoro-4-oxo-4H-chromene-3-carboxylic acid]: “TRE0080974 #28 No activity”.
